Data taken from patent US12642783B2, “Method for treating vaso occlusive crises associated with Sickle cell disease” (Nicox SA, priority 2020, dated 2026).

How the values were obtained:
[1] = tested on: vaso-occlusive crises; conditions: sickle cell disease; cited from earlier work
[2] = tested on: blood pressure; conditions: 3 pivotal trials, 2,734 patients with osteoarthritis of the hip or knee; cited from earlier work
[3] = tested on: osteoarthritis (OA) of the knee; conditions: human studies, OA of the knee patients; cited from earlier work
[4] = tested on: cGMP; experiment: cGMP levels after intravenous administration in Sickle Cell mouse model (thrombin challenge); format: in vivo, mice; conditions: for cGMP levels compared to thrombin alone or naproxen administration: Homozygous Sickle Cell transgenic mice, 15 mg/kg intravenous, p<0.01 (FIG. 2)
Procedure: (§1) This trial was conducted to assess the efficacy of 4-(nitrooxy)butyl-(2S)-2-(6-methoxy-2-naphthyl) propanoate (naproxcinod) to increase Nitrite (a precursor to NO), and cGMP in Homozygous Townes Sickle Cell transgenic mice.
(§2) Homozygous Sickle Cell transgenic mice were treated with either 4-(nitrooxy)butyl-(2S)-2-(6-methoxy-2-naphthyl) propanoate (naproxcinod) (15 mg/kg) or naproxen (15 mg/kg—as a control) or saline (as a vehicle control) by intravenous injection. After one hour, the mice were injected with thrombin (1 u/20 g) to induce platelet activation. Blood was drawn at […] after thrombin administration. Plasma nitrite levels were measured as a marker of nitric oxide bioavailability. cGMP levels were measured after addition of IBMX (3-Isobutyl-1-methylxanthine) (100 uM) to prevent cGMP degradation. Platelets were isolated and activation measured by surface expression of p-selectin.

[5] = tested on: Nitrite; experiment: Plasma nitrite levels after intravenous administration in Sickle Cell mouse model (thrombin challenge); format: in vivo; conditions: Homozygous Sickle Cell transgenic mice, 15 mg/kg intravenous, at one hour after thrombin (FIG. 1)
Procedure: as §1, §2

[6] = approved package insert (Novartis, 2019); cited from earlier work

NC(=O)NO [Droxia, hydroxyurea]
frequency of vaso-occlusive crises [1]: reduce the frequency

NC(=O)CC[C@H](N)C(=O)O [Endari, L-glutamine]
frequency of vaso-occlusive crises [1]: reduce the frequency

COc1ccc2cc([C@H](C)C(=O)OCCCCO[N+](=O)[O-])ccc2c1 [naproxcinod, 4-(nitrooxy)butyl-(2S)-2-(6-methoxy-2-naphthyl) propanoate]
hypertensive burden induced by most NSAIDs [2]: reduce some of the hypertensive burden
management of the signs and symptoms of OA [3]: clinical efficacy and safety
cGMP levels compared to thrombin alone or naproxen administration ([4]; at 30 minutes after thrombin): significantly increased
cGMP levels compared to thrombin alone or naproxen administration ([4]; at 60 minutes after thrombin): significantly increased
cyclic guanosine monophosphate level (cGMP level) ([4]; Sickle cell animal model, summary statement): able to increase
nitrite concentration compared to thrombin alone or naproxen administration [5]: statistically greater

B1: crizanlizumab-tmca (antibody, chains of the INN, looked up, V domains shown)
VH: QVQLVQSGAEVKKPGASVKVSCKVSGYTFTSYDINWVRQAPGKGLEWMGWIYPGDGSIKYNEKFKGRVTMTVDKSTDTAYMELSSLRSEDTAVYYCARRGEYGNYEGAMDYWGQGTLVTVSS
VL: DIQMTQSPSSLSASVGDRVTITCKASQSVDYDGHSYMNWYQQKPGKAPKLLIYAASNLESGVPSRFSGSGSGTDFTLTISSLQPEDFATYYCQQSDENPLTFGGGTKVEIK
notes: FDA-approved drug for vaso-occlusive crises complication in sickle cell disease
incidence rate of arthralgia [6]: 18%
incidence rate of back pain [6]: 15%
frequency of vaso-occlusive crises [1]: reduce the frequency
